Patent publication US11147272B2, “Pyridone compounds and agricultural and horticultural fungicides comprising the same as active ingredients” (MITSUI CHEMICALS AGRO, INC., priority 2017, dated 2021)

Assays:
Phytophthora infestans = test: whole plant or invertebrate; format: in vivo; details: for Test F control value class: class of control value; for pest or weed control at 250 µg/mL: Phytophthora infestans, in Solanum lycopersicum, topical, read-out: Test F control value class
Alternaia brassicicola = test: Test Example C: Alternaria sooty spot on cabbage; format: in vivo; details: for Test C control value class / pest or weed control at 250 µg/mL: class of control value; for pest or weed control at 250 µg/mL: Brassica oleracea, topical, read-out: Test C control value class
Text: Seeds of a test plant (cabbage variety: Shikidori) were planted and cultivated until the cotyledons extended.
<Control Value> Control value=100{1−(n/3)}

[1] = system: Blumeria graminis f. sp. hordei; test: Test Example D: Powdery mildew on barley; details: for Test D control value class: class of control value; for pest or weed control at 250 µg/mL: Blumeria graminis, in Hordeum vulgare, topical, read-out: Test D control value class
Plasmopara viticola = test: Test Example G: Downy mildew on vine; details: for Test G control value class: Downy mildew on vine (Neomuscat), 2.5 ml/pot, assessed 7 to 10 days after inoculation; for Test G control value: 7 to 10 days after inoculation; for pest or weed control at 250 ppm: Plasmopara viticola, topical, read-out: Test G control value class
Protocol: Seeds of a test plant (grape variety: Neomuscat) were planted and cultivated until three to four first leaves appeared. In the test, the inventive compounds were dissolved into dimethyl sulfoxide-methanol mixture solution (volume ratio: 9/1), and the resultant solutions were diluted with well water to a concentration of 250 ppm to obtain the drug solutions. The drug solutions were sprayed to the test plant (2.5 ml/pot). After the drug solutions dried, a zoosporangia suspension (1-2×10^4 zoosporangia/ml) of Plasmopara viticola was inoculated to the plant by spraying. After the inoculation, the plant was kept in a mist chamber at room temperature of 20° C. for about 24 hours to promote the onset of disease. The degrees of disease development were investigated 7 to 10 days after the inoculation, and the effectiveness of the drug solutions was evaluated.
In Test Examples described above, the degrees of disease development were evaluated in increments of 0.05 from 0 (as no incidence of disease) to 3 (as the degree of disease development in an untreated plant group). Further, control values were calculated using the following equation based on the degree of disease development.
n=Degree of disease development in each treated group

[2] = system: Colletotrichum orbiculare; test: Test Example H: Anthracnose on cucumber; details: for Test H control value class: Anthracnose on cucumber (Sagami Hanjiro), 2.5 ml/pot, assessed 6 to 10 days after inoculation; for Test H control value: 6 to 10 days after inoculation; for pest or weed control at 250 ppm: Colletotrichum orbiculare, in Cucumis sativus, topical, read-out: Test H control value class
Puccinia recondita = test: Test Example E: Brown rust on wheat; format: in vivo; details: for Test E control value class / pest or weed control at 250 µg/mL: class of control value; for pest or weed control at 250 µg/mL: Puccinia recondita, topical, read-out: Test E control value class
Botrytis cinerea = test: Test Example B: Gray mold on tomato; details: for Test B control value class: class of control value; for pest or weed control at 250 µg/mL: Botrytis cinerea, in Solanum lycopersicum, topical, read-out: Test B control value class
Magnaporthe grisea = test: whole plant or invertebrate; format: in vivo; details: for Test A control value class: class of control value; for pest or weed control at 250 µg/mL: Pyricularia oryzae, in Oryza sativa, read-out: Test A control value class
[3] = Alternaria sooty spot on cabbage
[4] = 250 ppm drug solution sprayed on test plant
[5] = 250 ppm drug solution sprayed (2.5 ml/pot), grape Neomuscat
[6] = 250 ppm drug solution sprayed (2.5 ml/pot), cucumber Sagami Hanjiro
[7] = Late blight on tomato, control value class
[8] = Alternaria sooty spot on cabbage, control value class
[9] = Powdery mildew on barley, control value class
[10] = Downy mildew on vine, 250 ppm spray
[11] = Anthracnose on cucumber, 250 ppm spray
[12] = Brown rust on wheat, control value class
[13] = Gray mold on tomato, control value class
[14] = Blast on rice, control value class

CCOc1cc(F)c(-c2c(C(OC)C(C)C)cc(Cl)c(=O)n2CC)c(F)c1 (centres unmarked) [compound 72]
Test F control value class (Phytophthora infestans; Late blight on tomato): L (50% or less control value)
Test C control value class (Alternaia brassicicola; [3]): H (more than 50% control value)
Test D control value class ([1]; Powdery mildew on barley): H (more than 50% control value)
Test G control value class (Plasmopara viticola; 250 ppm spray): H (more than 50% control value)
Test H control value class ([2]; 250 ppm spray): H (more than 50% control value)
Test E control value class (Puccinia recondita; Brown rust on wheat): H (more than 50% control value)
Test B control value class (Botrytis cinerea; Gray mold on tomato): H (more than 50% control value)
Test A control value class (Magnaporthe grisea; Blast on rice): H (more than 50% control value)

CCn1c(-c2c(F)cc(F)cc2F)c(COC(C)C)cc(Cl)c1=O [compound 58]
Test F control value class (Phytophthora infestans; Late blight on tomato): L (50% or less control value)
Test C control value class (Alternaia brassicicola; [3]): H (more than 50% control value)
Test D control value class ([1]; Powdery mildew on barley): H (more than 50% control value)
Test G control value class (Plasmopara viticola; 250 ppm spray): L (50% or less control value)
Test H control value class ([2]; 250 ppm spray): H (more than 50% control value)
Test E control value class (Puccinia recondita; Brown rust on wheat): H (more than 50% control value)
Test B control value class (Botrytis cinerea; Gray mold on tomato): H (more than 50% control value)
Test A control value class (Magnaporthe grisea; Blast on rice): H (more than 50% control value)

CCCc1cc(Br)c(=O)n(CC(F)F)c1-c1c(F)cc(F)cc1F [compound 472]
Test F control value (Phytophthora infestans; [4]): L (50% or less control value)
Test C control value (Alternaia brassicicola; [4]): H (more than 50% control value)
Test D control value [1, 4]: H (more than 50% control value)
Test G control value (Plasmopara viticola; [5]): H (more than 50% control value)
Test H control value [2, 6]: H (more than 50% control value)
Test E control value (Puccinia recondita; [4]): H (more than 50% control value)
Test B control value (Botrytis cinerea; [4]): H (more than 50% control value)
Test A control value (Magnaporthe grisea; [4]): H (more than 50% control value)

CCCCCCCCc1cc(Cl)c(=O)n(CC)c1-c1ccc(F)cc1Cl [compound 271]
Test F control value (Phytophthora infestans; [7]): L (50% or less control value)
Test C control value (Alternaia brassicicola; [8]): L (50% or less control value)
Test D control value [1, 9]: H (more than 50% control value)
Test G control value (Plasmopara viticola; [10]): L (50% or less control value)
Test H control value [2, 11]: L (50% or less control value)
Test E control value (Puccinia recondita; [12]): L (50% or less control value)
Test B control value (Botrytis cinerea; [13]): L (50% or less control value)
Test A control value (Magnaporthe grisea; [14]): L (50% or less control value)

CCCc1ccc(=O)n(CC(F)F)c1-c1c(F)cc(OC)cc1F [compound 474]
Test F control value (Phytophthora infestans; [4]): L (50% or less control value)
Test C control value (Alternaia brassicicola; [4]): H (more than 50% control value)
Test D control value [1, 4]: H (more than 50% control value)
Test G control value (Plasmopara viticola; [5]): H (more than 50% control value)
Test H control value [2, 6]: H (more than 50% control value)
Test E control value (Puccinia recondita; [4]): H (more than 50% control value)
Test B control value (Botrytis cinerea; [4]): H (more than 50% control value)
Test A control value (Magnaporthe grisea; [4]): H (more than 50% control value)

CCC(O)c1cc(Cl)c(=O)n(CC)c1-c1c(F)cc(OC)cc1F (centres unmarked) [compound 50]
Test F control value class (Phytophthora infestans; Late blight on tomato): L (50% or less control value)
Test C control value class (Alternaia brassicicola; [3]): H (more than 50% control value)
Test D control value class ([1]; Powdery mildew on barley): L (50% or less control value)
Test G control value class (Plasmopara viticola; 250 ppm spray): H (more than 50% control value)
Test H control value class ([2]; 250 ppm spray): H (more than 50% control value)
Test E control value class (Puccinia recondita; Brown rust on wheat): H (more than 50% control value)
Test B control value class (Botrytis cinerea; Gray mold on tomato): H (more than 50% control value)
Test A control value class (Magnaporthe grisea; Blast on rice): H (more than 50% control value)

CCCc1cc(I)c(=O)n(CC(F)F)c1-c1c(F)cc(OC)cc1F [compound 477]
Test F control value (Phytophthora infestans; [4]): L (50% or less control value)
Test C control value (Alternaia brassicicola; [4]): H (more than 50% control value)
Test D control value [1, 4]: H (more than 50% control value)
Test G control value (Plasmopara viticola; [5]): L (50% or less control value)
Test H control value [2, 6]: H (more than 50% control value)
Test E control value (Puccinia recondita; [4]): H (more than 50% control value)
Test B control value (Botrytis cinerea; [4]): H (more than 50% control value)
Test A control value (Magnaporthe grisea; [4]): H (more than 50% control value)

CCOC(C)(c1cc(Br)c(=O)n(CC)c1-c1c(F)cc(F)cc1F)C(C)C (centres unmarked) [compound 466]
Test F control value (Phytophthora infestans; [4]): L (50% or less control value)
Test C control value (Alternaia brassicicola; [4]): H (more than 50% control value)
Test D control value [1, 4]: H (more than 50% control value)
Test G control value (Plasmopara viticola; [5]): L (50% or less control value)
Test H control value [2, 6]: L (50% or less control value)
Test E control value (Puccinia recondita; [4]): L (50% or less control value)
Test B control value (Botrytis cinerea; [4]): L (50% or less control value)
Test A control value (Magnaporthe grisea; [4]): L (50% or less control value)

C#CCOc1ccc(-c2c(CC(C)C)cc(Cl)c(=O)n2CC)c(F)c1 [compound 125]
Test F control value class (Phytophthora infestans; Late blight on tomato): L (50% or less control value)
Test C control value class (Alternaia brassicicola; [3]): H (more than 50% control value)
Test D control value class ([1]; Powdery mildew on barley): H (more than 50% control value)
Test G control value class (Plasmopara viticola; 250 ppm spray): H (more than 50% control value)
Test H control value class ([2]; 250 ppm spray): H (more than 50% control value)
Test E control value class (Puccinia recondita; Brown rust on wheat): H (more than 50% control value)
Test B control value class (Botrytis cinerea; Gray mold on tomato): H (more than 50% control value)
Test A control value class (Magnaporthe grisea; Blast on rice): H (more than 50% control value)

CCn1c(-c2ccc(OC)cc2F)c(CC(C)C)cc(Cl)c1=O [compound 115]
Test F control value class (Phytophthora infestans; Late blight on tomato): L (50% or less control value)
Test C control value class (Alternaia brassicicola; [3]): H (more than 50% control value)
Test D control value class ([1]; Powdery mildew on barley): H (more than 50% control value)
Test G control value class (Plasmopara viticola; 250 ppm spray): L (50% or less control value)
Test H control value class ([2]; 250 ppm spray): H (more than 50% control value)
Test E control value class (Puccinia recondita; Brown rust on wheat): H (more than 50% control value)
Test B control value class (Botrytis cinerea; Gray mold on tomato): H (more than 50% control value)
Test A control value class (Magnaporthe grisea; Blast on rice): H (more than 50% control value)

CCn1c(-c2c(F)cccc2F)c(C(C)C)cc(Cl)c1=O [compound 6]
Test F control value class (Phytophthora infestans; Late blight on tomato): L (50% or less control value)
Test C control value class (Alternaia brassicicola; [3]): H (more than 50% control value)
Test D control value class ([1]; Powdery mildew on barley): H (more than 50% control value)
Test G control value class (Plasmopara viticola; 250 ppm spray): L (50% or less control value)
Test H control value class ([2]; 250 ppm spray): H (more than 50% control value)
Test E control value class (Puccinia recondita; Brown rust on wheat): H (more than 50% control value)
Test B control value class (Botrytis cinerea; Gray mold on tomato): H (more than 50% control value)
Test A control value class (Magnaporthe grisea; Blast on rice): H (more than 50% control value)

CCn1c(-c2c(F)cccc2F)c(C=O)cc(Cl)c1=O [Compound No. 20, 5-chloro-2-(2,6-difluorophenyl)-1-ethyl-6-oxo-1,6-dihydropyridine-3-carb aldehyde]
pest or weed control at 250 µg/mL (Phytophthora infestans): < 50%
pest or weed control at 250 µg/mL (Alternaia brassicicola; [3]): < 50%
pest or weed control at 250 µg/mL [1]: < 50%
pest or weed control at 250 ppm (Plasmopara viticola): > 50%
pest or weed control at 250 ppm [2]: < 50%
pest or weed control at 250 µg/mL (Puccinia recondita; Brown rust on wheat): > 50%
pest or weed control at 250 µg/mL (Botrytis cinerea): > 50%
pest or weed control at 250 µg/mL (Magnaporthe grisea): > 50%

CCn1c(-c2ccc(Br)cc2Cl)c(CC(C)C)cc(Br)c1=O [compound 237]
Test F control value (Phytophthora infestans; [7]): L (50% or less control value)
Test C control value (Alternaia brassicicola; [8]): H (more than 50% control value)
Test D control value [1, 9]: H (more than 50% control value)
Test G control value (Plasmopara viticola; [10]): L (50% or less control value)
Test H control value [2, 11]: L (50% or less control value)
Test E control value (Puccinia recondita; [12]): H (more than 50% control value)
Test B control value (Botrytis cinerea; [13]): H (more than 50% control value)
Test A control value (Magnaporthe grisea; [14]): L (50% or less control value)

C=CCOc1cccc(F)c1-c1c(CC(C)C)cc(Cl)c(=O)n1CC [compound 104]
Test F control value class (Phytophthora infestans; Late blight on tomato): L (50% or less control value)
Test C control value class (Alternaia brassicicola; [3]): L (50% or less control value)
Test D control value class ([1]; Powdery mildew on barley): H (more than 50% control value)
Test G control value class (Plasmopara viticola; 250 ppm spray): H (more than 50% control value)
Test H control value class ([2]; 250 ppm spray): H (more than 50% control value)
Test E control value class (Puccinia recondita; Brown rust on wheat): L (50% or less control value)
Test B control value class (Botrytis cinerea; Gray mold on tomato): H (more than 50% control value)
Test A control value class (Magnaporthe grisea; Blast on rice): H (more than 50% control value)

CCc1ccc(=O)n(C)c1-c1ccc(F)cc1C [compound 360]
Test F control value (Phytophthora infestans; [7]): H (more than 50% control value)
Test C control value (Alternaia brassicicola; [8]): L (50% or less control value)
Test D control value [1, 9]: L (50% or less control value)
Test G control value (Plasmopara viticola; [10]): L (50% or less control value)
Test H control value [2, 11]: L (50% or less control value)
Test E control value (Puccinia recondita; [12]): L (50% or less control value)
Test B control value (Botrytis cinerea; [13]): L (50% or less control value)
Test A control value (Magnaporthe grisea; [14]): L (50% or less control value)

CCn1c(-c2c(F)cc(OC)cc2F)c(C(C)C)ccc1=O [Compound No. 10, 6-(2,6-Difluoro-4-methoxyphenyl)-1-ethyl-5-isopropylpyridin-2(1H)-one]
pest or weed control at 250 µg/mL (Phytophthora infestans): < 50%
pest or weed control at 250 µg/mL (Alternaia brassicicola; [3]): > 50%
pest or weed control at 250 µg/mL [1]: > 50%
pest or weed control at 250 ppm (Plasmopara viticola): < 50%
pest or weed control at 250 ppm [2]: > 50%
pest or weed control at 250 µg/mL (Puccinia recondita; Brown rust on wheat): > 50%
pest or weed control at 250 µg/mL (Botrytis cinerea): > 50%
pest or weed control at 250 µg/mL (Magnaporthe grisea): > 50%
